Experimental data: patent US10092570B2 (Incyte Corporation, priority 2011, dated 2018)
Where a name gives a salt, the structure may show the parent alone.

Biological target: PI3Kδ (p110δ/p85α) (Homo sapiens (Human), UniProt O00329)
Assay: Example A3: PI3Kδ scintillation proximity assay
Format: biochemical
Details: scintillation proximity assay, 20 μM ATP, 4 nM PI3Kδ; read-out: PI3Kδ SPA IC50
Summary of the method: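 p110δ/p85α (4 nM) phosphorylated 20 μM PIP2 with 20 μM ATP plus [γ-33P]ATP in MOPS pH 6.7, MgCl2, DTT, CHAPS, 0.5% DMSO, at RT. Stopped with EDTA/excess ATP, product captured on WGA SPA beads overnight and counted; IC50 from percent control activity versus log inhibitor.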

Chain of PI3Kδ (p110δ/p85α) (O00329 whole entry): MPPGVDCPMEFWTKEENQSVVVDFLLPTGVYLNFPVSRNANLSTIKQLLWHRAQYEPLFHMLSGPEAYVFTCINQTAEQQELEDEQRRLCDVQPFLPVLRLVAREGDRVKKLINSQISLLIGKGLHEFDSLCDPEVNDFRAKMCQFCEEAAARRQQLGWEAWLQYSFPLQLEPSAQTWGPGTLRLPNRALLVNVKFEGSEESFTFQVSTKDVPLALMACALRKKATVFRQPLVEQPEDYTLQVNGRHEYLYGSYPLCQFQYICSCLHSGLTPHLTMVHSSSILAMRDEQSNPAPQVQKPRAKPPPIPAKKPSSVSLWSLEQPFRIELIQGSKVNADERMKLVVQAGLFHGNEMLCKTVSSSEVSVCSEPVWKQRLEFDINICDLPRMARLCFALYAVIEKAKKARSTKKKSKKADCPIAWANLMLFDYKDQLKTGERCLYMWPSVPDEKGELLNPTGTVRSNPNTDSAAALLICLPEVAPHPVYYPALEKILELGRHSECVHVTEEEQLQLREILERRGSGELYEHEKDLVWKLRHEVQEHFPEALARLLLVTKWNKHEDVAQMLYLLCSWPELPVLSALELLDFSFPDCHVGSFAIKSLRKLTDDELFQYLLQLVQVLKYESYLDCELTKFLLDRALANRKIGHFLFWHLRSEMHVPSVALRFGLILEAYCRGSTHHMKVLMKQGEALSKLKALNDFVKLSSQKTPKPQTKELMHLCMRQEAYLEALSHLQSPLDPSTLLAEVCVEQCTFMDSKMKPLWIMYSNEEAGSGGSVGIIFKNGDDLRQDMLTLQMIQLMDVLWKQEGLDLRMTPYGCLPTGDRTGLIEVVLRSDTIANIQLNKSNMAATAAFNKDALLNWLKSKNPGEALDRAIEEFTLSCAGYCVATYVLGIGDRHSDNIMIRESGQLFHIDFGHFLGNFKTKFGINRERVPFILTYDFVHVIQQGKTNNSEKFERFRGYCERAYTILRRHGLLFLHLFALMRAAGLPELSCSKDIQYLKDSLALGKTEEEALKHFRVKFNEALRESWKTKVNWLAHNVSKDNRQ
Chain of PI3Kδ (p110δ/p85α) (P27986 whole entry partner): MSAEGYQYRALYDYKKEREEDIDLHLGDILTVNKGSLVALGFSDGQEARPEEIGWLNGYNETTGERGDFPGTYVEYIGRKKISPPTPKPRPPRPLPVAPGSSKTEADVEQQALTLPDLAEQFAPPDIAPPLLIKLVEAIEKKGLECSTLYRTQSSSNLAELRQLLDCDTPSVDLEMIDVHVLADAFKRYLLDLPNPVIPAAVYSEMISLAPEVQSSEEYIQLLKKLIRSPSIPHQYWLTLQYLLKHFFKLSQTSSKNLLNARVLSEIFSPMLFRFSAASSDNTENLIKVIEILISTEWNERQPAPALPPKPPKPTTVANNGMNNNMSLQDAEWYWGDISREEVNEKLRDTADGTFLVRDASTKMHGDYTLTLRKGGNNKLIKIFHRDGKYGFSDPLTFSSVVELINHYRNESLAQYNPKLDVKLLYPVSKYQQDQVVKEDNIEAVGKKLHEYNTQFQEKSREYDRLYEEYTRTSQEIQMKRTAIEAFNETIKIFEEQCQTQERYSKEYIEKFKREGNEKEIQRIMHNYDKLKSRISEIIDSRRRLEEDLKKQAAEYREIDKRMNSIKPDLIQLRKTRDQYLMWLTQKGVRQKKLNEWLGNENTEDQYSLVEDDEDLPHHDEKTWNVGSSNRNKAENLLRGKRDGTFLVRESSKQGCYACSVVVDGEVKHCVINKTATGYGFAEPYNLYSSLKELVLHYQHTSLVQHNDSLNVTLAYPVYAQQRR

Compound: COc1c(C(C)n2ccc(=O)c3c(N)ncnc32)cc(Cl)c(C)c1C1CN(C(C)C)C1 (racemic) [Example 34, 4-Amino-8-{1-[5-chloro-3-(1-isopropylazetidin-3-yl)-2-methoxy-4-methylphenyl]ethyl}pyrido[2,3-d]pyrimidin-5(8H)-one]
- IC50: < 10 nM

Compound: CCOc1c(C(C)n2nc(C)c3c(N)ncnc32)cc(Cl)c(C#N)c1-c1ccc(C(C)(C)O)nc1 (racemic) [Example 316, 4-[1-(4-amino-3-methyl-1H-pyrazolo[3,4-d]pyrimidin-1-yl)ethyl]-6-chloro-3-ethoxy-2-[6-(1-hydroxy-1-methylethyl)pyridin-3-yl]benzonitrile]
- IC50: < 10 nM

Compound: COc1c(C(C)n2nc(C(F)F)c3c(N)ncnc32)cc(C#N)c(F)c1C1CN(C[C@H](C)O)C1 (stereo partly drawn) [Example 77, 5-(1-(4-Amino-3-(difluoromethyl)-1H-pyrazolo[3,4-d]pyrimidin-1-yl)ethyl)-2-fluoro-3-(1-((S)-2-hydroxypropyl)azetidin-3-yl)-4-methoxybenzonitrile]
- IC50: < 10 nM

Compound: COc1c(C(C)n2nc(C)c3c(N)ncnc32)cc(Cl)c(C)c1C1CN(CC(C)C)C1 (racemic) [Example 7, 1-{1-[5-Chloro-3-(1-isobutylazetidin-3-yl)-2-methoxy-4-methylphenyl]ethyl}-3-methyl-1H-pyrazolo[3,4-d]pyrimidin-4-amine]
- IC50: < 10 nM

Compound: COc1c(C(C)n2nc(C)c3c(N)ncnc32)cc(Cl)c(C)c1C1CN(C(C)C#N)C1 (stereo not drawn) [Example 106, 2-(3-{3-[1-(4-Amino-3-methyl-1H-pyrazolo[3,4-d]pyrimidin-1-yl)ethyl]-5-chloro-2-methoxy-6-methylphenyl}azetidin-1-yl)propanenitrile]
- IC50: < 10 nM

Compound: CCOc1c(C(C)n2nc(CC#N)c3c(N)ncnc32)cc(Cl)c(C)c1-c1ccc(C(=O)N(C)C)nc1 (racemic) [Example 165, 5-(3-{1-[4-Amino-3-(cyanomethyl)-1H-pyrazolo[3,4-d]pyrimidin-1-yl]ethyl}-5-chloro-2-ethoxy-6-methylphenyl)-N,N-dimethylpyridine-2-carboxamide]
- IC50: < 10 nM

Compound: CCOc1c(C(C)n2nc(C)c3c(N)ncnc32)cc(Cl)c(C)c1C1CN(C(=O)[C@H](C)O)C1 (stereo partly drawn) [Example 99, (2S)-1-(3-{3-[1-(4-Amino-3-methyl-1H-pyrazolo[3,4-d]pyrimidin-1-yl)ethyl]-5-chloro-2-ethoxy-6-methylphenyl}azetidin-1-yl)-1-oxopropan-2-ol trifluoroacetate]
- IC50: < 10 nM

Compound: COc1c(C(C)n2nc(C)c3c(N)ncnc32)cc(Cl)c(C)c1C1CN(C)C1 (racemic) [Example 5, 1-{1-[5-chloro-2-methoxy-4-methyl-3-(1-methylazetidin-3-yl)phenyl]ethyl}-3-methyl-1H-pyrazolo[3,4-d]pyrimidin-4-amine]
- IC50: < 10 nM

Compound: COc1c(C(C)n2nc(C)c3c(N)ncnc32)cc(Cl)c(C)c1C1CN([C@@H](C)C(=O)N(C)C)C1 (stereo partly drawn) [Example 160, (2S)-2-(3-{3-[1-(4-Amino-3-methyl-1H-pyrazolo[3,4-d]pyrimidin-1-yl)ethyl]-5-chloro-2-methoxy-6-methylphenyl}azetidin-1-yl)-N,N-dimethylpropanamide]
- IC50: < 10 nM

Compound: COc1c(C(C)n2nc(C(F)F)c3c(N)ncnc32)cc(C#N)c(C)c1C1CN(CC(F)F)C1 (racemic) [Example 136, 5-{1-[4-Amino-3-(difluoromethyl)-1H-pyrazolo[3,4-d]pyrimidin-1-yl]ethyl}-3-[1-(2,2-difluoroethyl)azetidin-3-yl]-4-methoxy-2-methylbenzonitrile]
- IC50: < 10 nM

Compound: COc1c(C(C)n2nc(C)c3c(N)ncnc32)cc(Cl)c(C)c1-c1cnn(C2CCN(C(C)=O)CC2)c1 (single isomer, unassigned) [Example 182, 1-(1-{3-[1-(1-Acetylpiperidin-4-yl)-1H-pyrazol-4-yl]-5-chloro-2-methoxy-4-methylphenyl}ethyl)-3-methyl-1H-pyrazolo[3,4-d]pyrimidin-4-amine]
- IC50: < 10 nM

Compound: CCOc1c(C(C)n2nc(C)c3c(N)ncnc32)cc(Cl)c(C#N)c1-c1cncnc1 (racemic) [Example 329, 4-[1-(4-amino-3-methyl-1H-pyrazolo[3,4-d]pyrimidin-1-yl)ethyl]-6-chloro-3-ethoxy-2-pyrimidin-5-ylbenzonitrile]
- IC50: < 10 nM

Compound: COc1c(C(C)n2nc(C)c3c(N)ncnc32)cc(Cl)c(C)c1C1CN(C[C@@H](O)C(F)(F)F)C1 (single isomer, unassigned) [Example 115]
- IC50: < 10 nM

Compound: CCOc1c(C(C)n2nc(C)c3c(N)ncnc32)cc(Cl)c(F)c1C1CN(C[C@H](C)O)C1 (stereo partly drawn) [Example 143, (2S)-1-(3-{3-[1-(4-Amino-3-methyl-1H-pyrazolo[3,4-d]pyrimidin-1-yl)ethyl]-5-chloro-2-ethoxy-6-fluorophenyl}azetidin-1-yl)propan-2-ol]
- IC50: < 10 nM

Compound: CCOc1c(C(C)n2nc(C)c3c(N)ncnc32)cc(Cl)c(C#N)c1C1CN(C(C)(C)CO)C1 (single isomer, unassigned) [Example 237, 4-[1-(4-Amino-3-methyl-1H-pyrazolo[3,4-d]pyrimidin-1-yl)ethyl]-6-chloro-3-ethoxy-2-[1-(2-hydroxy-1,1-dimethylethyl)azetidin-3-yl]benzonitrile]
- IC50: < 10 nM

Compound: COc1c(C(C)n2nc(C)c3c(N)ncnc32)cc(Cl)c(C)c1C1CN(C2(CC#N)CCC2)C1 (single isomer, unassigned) [Example 161, [1-(3-{3-[1-(4-Amino-3-methyl-1H-pyrazolo[3,4-d]pyrimidin-1-yl)ethyl]-5-chloro-2-methoxy-6-methylphenyl}azetidin-1-yl)cyclobutyl]acetonitrile]
- IC50: < 10 nM

Compound: COc1c(C(C)n2nc(C)c3c(N)ncnc32)cc(Cl)c(C)c1-c1cnn(C(C)C(=O)N(C)C)c1 (stereo not drawn) [Example 207, 2-(4-(3-(1-(4-amino-3-methyl-1H-pyrazolo[3,4-d]pyrimidin-1-yl)ethyl)-5-chloro-2-methoxy-6-methylphenyl)-1H-pyrazol-1-yl)-N,N-dimethylpropanamide]
- IC50: < 10 nM

Compound: CCNC(=O)c1c(C)c(Cl)cc(C(C)n2nc(-c3ccc4nc(N)sc4c3)c3c(N)ncnc32)c1OCC (racemic) [Example 90, 3-{1-[4-Amino-3-(2-amino-1,3-benzothiazol-6-yl)-1H-pyrazolo[3,4-d]pyrimidin-1-yl]ethyl}-5-chloro-2-ethoxy-N-ethyl-6-methylbenzamide]
- IC50: < 10 nM

Compound: CCOc1c(C(C)n2nc(C)c3c(N)ncnc32)cc(Cl)c(C)c1-c1ccnc(C(=O)N(C)C)c1 (single isomer, unassigned) [Example 201]
- IC50: < 10 nM

Compound: CCOc1c(C(C)n2cc(C)c3c(N)ncnc32)cc(Cl)c(C#N)c1C1CN(CCO)C1 (stereo not drawn) [Example 308, 4-[1-(4-Amino-5-methyl-7H-pyrrolo[2,3-d]pyrimidin-7-yl)ethyl]-6-chloro-3-ethoxy-2-[1-(2-hydroxyethyl)azetidin-3-yl]benzonitrile]
- IC50: < 10 nM

Compound: CCOc1c(C(C)n2nc(C)c3c(N)ncnc32)cc(Cl)c(C#N)c1C1CN(S(=O)(=O)CC)C1 (single isomer, unassigned) [Example 249, 4-[1-(4-Amino-3-methyl-1H-pyrazolo[3,4-d]pyrimidin-1-yl)ethyl]-6-chloro-3-ethoxy-2-[1-(ethylsulfonyl)azetidin-3-yl]benzonitrile]
- IC50: < 10 nM
